Laboratory results as given in US20090325259A1, “USE OF ADHESION MOLECULES AS BOND STRESS-ENHANCED NANOSCALE BINDING SWITCHES” (priority 2002, published 2009).

What was measured:
f-18 fimbriae (FimH) = f-18 fimbriae (FimH) (Escherichia coli, UniProt P08191, N91S/S99N/V48A); conditions: 6 μm PS beads
Procedure: Physisorption of fimbriae to PS plates: 35 mm Coming (#430165) tissue culture dishes were incubated with purified fimbriae diluted 500 fold in 0.02M bicarbonate buffer at 37° C. for 1 hour, and then washed thrice in PBS with 0.1% BSA (PBS-BSA) to prevent nonspecific adhesion by the beads or RBCs to the dish.
Bead coating by 1Man-BSA: Polystyrene microspheres were prepared by rotating a solution of 50 μl of 2.6% beads mixed with 150 μl of 20-200 μg/ml receptor in 0.02M Bicarbonate buffer for one hour at room temperature. Then they were spun twice and resuspended in fresh PBS-BSA. They were finally diluted down to 0.1% and injected in the chamber.
Parallel plate flow chamber experiments: The coated dishes served as the bottom plate in parallel plate flow chamber from Glycotech #31-0001 (Rockville, Md.) using a silicon rubber gasket 20 mm long, 2.5 mm wide and 0.010 in thick. […] The movement of the beads and RBCs was recorded using an inverted Nikon TE 2000 microscope with a long working distance 10× phase contrast objective by means of a Roper Scientific (Duluth, Ga.) Cascade CCD camera.
Data Analysis: Images of the flow chamber were recorded every 3 seconds for 3 minutes at each shear rate. […] The expected free flowing velocity was calculated by multiplying the shear rate by the radius of the particle, assuming that it is barely touching the surface. […]

[1] = tested on: E. coli bacteria expressing f18-FimH; test: Parallel plate flow chamber, E. coli on surfaces coated with purified components; type: binding; conditions: for Effect of shear on accumulation of E. coli on coated surface (in words): 0.12 to 20 dynes/cm^2
Procedure: Parallel plate flow chamber experiments. Dishes coated with purified components were prepared by incubating 35 mm tissue culture dishes with […] of either 200 mg/ml man-BSA, 200 mg/ml gal-BSA, or a 50,000-fold dilution of polyclonal anti-FimH antiserum in 0.02M bicarbonate buffer for 75 minutes at 37 C, and then washing three times with phosphate-buffered […] with 0.1% BSA (PBS-BSA). The dishes were then inserted into a 2.5 cm×0.25 cm×[…] parallel plate flow chamber (GlycoTech). Bacteria expressing f18-FimH were prepared as described previously (W. E. Thomas, E. Trintchina, M. Forero, V. Vogel, E. V. Sokurenko, Cell 109:913-23 (Jun. 28, 2002)), and brought to 108 cfu/ml in PBS-BSA. 2% alpha-monomannose was added to the PBS-BSA in the studies of surfaces coated with anti-FimH antibodies in order to inhibit any potential mannose-specific interaction between the bacteria and the carbohydrate modifications on the antibodies. This solution of bacteria was flowed through the chamber using a Harvard syringe pump at various shear rates. The bound bacteria were recorded using a Nikon inverted microscope with a 10× phase-contrast objective, a Roper Scientific high-resolution CCD camera, and MetaMorph video acquisition software. The field of view was […] with a resolution of […] per pixel. Even when 400 bacteria bound per field of view, they covered only 1% of the surface area, so that any interactions between bacteria were minimal.
Videos of bound bacteria were analyzed using MetaMorph imaging software. Total bound bacteria in an image appeared as dark spots in phase-contrast and were counted using the automated cell counting package in MetaMorph. The moving bacteria in an image were identified by subtracting an image from another taken one second earlier so that the bacteria that moved after the first image appear as dark spots that can be counted (FIG. 1, FIG. 3A, FIG. 4). This number was compared to the total number originally counted in the first image to give the fraction of bacteria that moved (FIGS. 1B 3C 3D. The movement may represent detachment or rolling. In FIG. 3B where even detached bacteria were visible due to the short shutter speed and low flow rate, bacteria were classified as detached when they moved faster than the hydrodynamic velocity (the shear rate times the bacterial radius of […]), as stationary if they moved less than one pixel (the size of the larger fluctuations in bacterial position over time that occurred with no net movement), and as rolling for anything in between.
Bacterial adhesion and accumulation is the first step in colonizing, and in many cases infecting target tissues. In order to determine the mechanism which allows bacteria to adhere to target tissues under shear, we studied the kinetics by which E. coli bacteria attach and detach from 1Man-coated surfaces, and how the attachment and detachment behavior depends on shear. Recombinant type I fimbriated E. coli bacteria were used that expressed a variant of the adhesion FimH. […] This FimH variant is found in commensal E. coli strains, including the strain F-18 used in our study. Mannosylated bovine serum albumin (1Man-BSA) was adsorbed to glass to prepare chemically controlled model surfaces that expose only 1Man in contrast to using red blood cells that present additional ligands and receptors that might interacting with E. coli. […] A suspension of E. coli cells was passed through a flow chamber coated with 1Man and the binding of bacteria to the surface under various shear conditions was determined. Using a long (2 second) camera shutter time to blur out the free floating cells, we measured the accumulation of stationary bacteria bound to the surface after a period of five minutes at a range of physiologically relevant shear stresses, from 0.12 to 20 dynes/cm^2 (FIG. 6, triangles). […] This is consistent with previous reports of poor binding of this strain to 1Man in the absence of shear.

[2] = tested on: guinea pig red blood cells (RBCs); test: Parallel plate flow chamber, RBCs on carpet of FimH-expressing E. coli; type: cell-based; conditions: for Adhesion of RBCs to bacterial carpet under low shear: 0.01 to 0.14 dynes/cm^2
Procedure: Bacteria-coated dishes were prepared as follows: 35 mm tissue culture dishes were incubated with 20 μg/ml RNAse B in 0.02 M bicarbonate buffer for 1 hr at 37° C. and washed three times in PBS with 0.1% BSA (PBS-BSA). The dishes were then incubated with 200 μl PBS-BSA containing 108 colony-forming units of E. coli for 1 hr at 37° C. and washed three times. […] The dishes were then placed under a Glycotech parallel plate flow chamber with a size B gasket (2.5 cm×0.25 cm×250 μm) and sealed with vacuum. A Harvard model #975 pulse-free syringe pump was used to pump fluid through the chamber. The dishes were equilibrated in the flow chamber with PBS-BSA, and a 0.1% solution of RBC was injected into the chamber, allowed to settle onto the bacterial carpet, and washed with PBS-BSA at a shear stress of about 0.5 dynes/cm^2 until all free cells had been removed from the chamber and upstream tubing. The volumetric flow was then reduced to bring the shear stress down to 0.01-0.02 dynes/cm^2, and the shear stress was stepped up 2-fold, with at least 3 min at each shear stress.
RBC movement was recorded using phase contrast microscopy with a 20× objective, a CCD camera, and Metamorph video imaging software by Universal Imaging. Videos were recorded at 1 frame every 2 s for a total of 3 min at each shear rate. The position of each RBC was tracked at 6 s intervals in these videos using Metamorph's point tracking plug-in. The average velocity for each cell was calculated from these positions over the 3 min at each shear. These were then averaged for the average velocity of all cells. Some cells detached completely at the low shear stress and moved at the fluid velocity. (A cell moving in flow near a surface has velocity approximately equal to the cell radius, 5 μm, times the shear rate, assuming it is almost touching the surface.) Since these times reflected movement without any bond detachment, these time intervals were removed from the analysis for each cell. We only analyzed cells that were attached and in the field of view at the start of the 3 min time frame. The off-rate of RBCs was calculated from the X, the percent of original RBCs remaining bound at time t, using the formula k=1/t·ln(1/X), and using t=3 min. This assumes that detachment is independent and governed by a single rate constant, and X=e−kt, so that the number of remaining RBCs decays exponentially.
To establish whether the differential pattern of RBC agglutination observed in example 1 was due to a distinct ability of shear to enhance adhesion of type I fimbriated bacteria to RBCs, we studied the adhesion of low- and high-Man1 binding variants to RBCs under well-defined shear conditions. Previous studies on the effect of shear on selectin or von Willebrand factor-mediated adhesion of lymphocytes and platelets have used flow chambers (Finger et al., 1996; Marchese et al., 1999). Using a similar approach, we immobilized bacteria expressing either FimH-f18 or FimH-j96 on the surface of a flow chamber coated with bovine 3Man-RNaseB, a model trimannose-containing substrate to which both FimH variants bind with equal affinity (see Table 1A). In brief, RBCs were allowed to bind to the bacterial carpet, and the unbound cells were removed by rinsing under moderate fluid flow shear (0.28 to 0.90 dynes/cm^2). RBCs that remained attached to the bacterial carpet were then subjected to various shear conditions.

[3] = tested on: guinea pig red blood cells (RBCs); test: RBC rosette-formation assay (static agglutination); type: cell-based; conditions: for RBC agglutination under static conditions (in words): static rosette-formation assay
Procedure: (§1) Assays of bacterial adhesion to Man1-BSA and bovine RNAseB immobilized in 96-well plates were carried out as described previously (Sokurenko et al., 1995). Briefly, Man1-BSA and bovine RNAseB were dissolved at 20 μg/ml in 0.02 M bicarbonate buffer, and 100 μl aliquots were incubated in microtiter wells for 1 hr at 37° C. The wells were then washed three times with PBS and quenched with 0.1% BSA in PBS. 3H-thymidine-labeled bacteria were added in 0.1% BSA in PBS and incubated for 40 min at 37° C. without shaking to achieve saturation, and the wells were then washed with PBS. The individual wells were subjected to scintillation counting. The density of bacteria used in all assays was 5×10^7 colony forming units per 100 μl. RBC rosette-formation assay was performed by mixing equal amounts of serially diluted bacterial suspensions (starting from OD540 nm=1.0) and a 1% suspension of RBC in U-bottom microtiter plate wells. On-slide agglutination assays were performed by mixing the suspension of RBC and bacteria on a slide surface followed by rocking at ˜3 s^−1.
(§2) Two commonly used RBC agglutination assays were performed that utilize different shear conditions. […] If no agglutination occurs, RBCs fall into a pellet in the bottom of the well (FIG. 15A), while agglutination results in a rosette of RBCs crosslinked by bacteria. […] After three minutes without rocking, the aggregate loosened (FIG. 15C).

[4] = tested on: guinea pig red blood cells (RBCs); test: On-slide RBC agglutination with rocking (dynamic); type: cell-based
Procedure: as §1, §2

[5] = switch from 5 to 0.12 dynes/cm^2

f-18 fimbriae (FimH), sequence (P08191 22-300 V48A/N91S/S99N): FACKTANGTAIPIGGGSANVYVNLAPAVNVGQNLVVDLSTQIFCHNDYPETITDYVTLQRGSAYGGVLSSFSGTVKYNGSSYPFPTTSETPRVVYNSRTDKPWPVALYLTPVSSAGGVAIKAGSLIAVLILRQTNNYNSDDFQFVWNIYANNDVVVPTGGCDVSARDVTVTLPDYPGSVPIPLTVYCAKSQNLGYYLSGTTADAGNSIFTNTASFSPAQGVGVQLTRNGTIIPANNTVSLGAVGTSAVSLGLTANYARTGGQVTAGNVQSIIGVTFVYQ
f-18 fimbriae (FimH), sequence (P08190 24-167 partner): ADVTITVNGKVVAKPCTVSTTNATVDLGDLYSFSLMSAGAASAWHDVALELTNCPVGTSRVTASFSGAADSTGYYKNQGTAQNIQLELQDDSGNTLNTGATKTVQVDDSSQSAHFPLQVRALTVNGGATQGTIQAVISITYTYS
f-18 fimbriae (FimH), sequence (P08189 21-176 partner): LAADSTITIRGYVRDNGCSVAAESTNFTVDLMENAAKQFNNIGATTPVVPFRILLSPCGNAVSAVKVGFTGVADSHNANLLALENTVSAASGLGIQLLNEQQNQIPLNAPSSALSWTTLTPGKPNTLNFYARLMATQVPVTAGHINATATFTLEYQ
f-18 fimbriae (FimH), sequence (P04128 24-182 partner): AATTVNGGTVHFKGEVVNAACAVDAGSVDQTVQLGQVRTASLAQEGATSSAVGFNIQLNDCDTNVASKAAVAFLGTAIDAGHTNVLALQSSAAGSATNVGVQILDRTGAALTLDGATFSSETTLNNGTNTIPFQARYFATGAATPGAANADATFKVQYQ

## 1Man-BSA: monomannose (1Man) conjugated to Bovine Serum Albumin
f-18 fimbriae (FimH)
  Binding of coated beads to carpet of fimbriae (in words): shear-activated binding
  Shear stress at which bead velocity starts to drop: 0.03 pN/μm^2
[1]
  Effect of shear on accumulation of E. coli on coated surface (in words): shear enhances the adhesion
[1]; 0.5 dynes/cm^2
  Number of initial attachments in the field of view: 102 attachments per minute
[1]; 3.6 dynes/cm^2
  Number of initial attachments in the field of view: 64 attachments per minute
[1]; 5 dynes/cm^2
  Increase of E. coli accumulation on coated surface: 100 -fold
[1]; 7 dynes/cm^2
  Number of initial attachments in the field of view: 32 attachments per minute
[1]; at the peak of the accumulation curve
  Rolling velocity of surface-bound bacteria: about 30 mm per second
[1]; peaking at around 3-5 dynes/cm^2, five minutes
  Accumulation of E. coli on coated surface, fold higher binding: over 100 -fold
[1]; [5]
  First-order rate constant for the switch from rolling to detached: 3 s⁻¹
  First-order rate constant for the switch from stationary to rolling: 0.09 s⁻¹

## COC1O[C@H](CO)[C@@H](O)[C@H](O)[C@@H]1O (stereo partly drawn) [α-methyl-mannoside, reference compound]
[2]; 50 mM
  Inhibition of original attachment of RBCs to bacteria: could be inhibited
[3]; 50 mM, in all assays (static and dynamic)
  Inhibition of RBC agglutination by α-methyl-mannoside: inhibitable

## FimH-f18: low-Man1 binding natural FimH variant from intestinal E. coli strain F18, expressed on type I fimbriated recombinant bacteria
[2]; 0.14 dynes/cm^2
  Off-rate of RBCs from bacterial carpet: 0.002 min⁻¹
[2]; 0.2 to 0.4 dynes/cm^2, on average
  Off-rate of RBCs from bacterial carpet: 0.1 min⁻¹
[2]; 0.7 dynes/cm^2
  Off-rate of RBCs from bacterial carpet: 0.03 min⁻¹
[2]
  Adhesion of RBCs to bacterial carpet under low shear: bind weakly
[2]; moderate shear, 0.28 to 0.90 dynes/cm^2
  Adhesion of RBCs to bacterial carpet under moderate shear: firmly adhered
[2]; shear stresses above 0.2 dynes/cm^2
  Off-rate of RBCs from bacterial carpet: too low to measure
[3]
  RBC agglutination under static conditions (in words): unable to mediate RBC agglutination
[4]; after rocking was stopped
  Time after rocking was stopped within which aggregates began to dissipate: ≤ 3 min
[4]; bacteria 10-fold diluted
  RBC aggregate formation in rocking assay with diluted bacteria: still formed aggregates

## FimH-j96: natural FimH variant of uropathogenic E. coli strain J96; differs from FimH-f18 by A27V, S70N, N78S
[2]
  Adhesion of RBCs to bacterial carpet under low shear: adhered firmly
[3]; static conditions
  Dilution of bacteria up to which RBC rosettes formed: ≤ 8 -fold dilution
[3]
  RBC agglutination under static conditions (in words): able to agglutinate RBC in static conditions
[4]; after rocking was halted
  Stability of RBC aggregates after rocking was halted: remained stable indefinitely long
[4]; highest concentration of bacteria (10^9 bacteria/ml)
  Time for RBCs to form tight clumps in dynamic rocking assay: 35 ± 2 s

## Q32L: single Q32L mutation, effect stated in the FimH-j96 background
[3]
  RBC agglutination under static conditions (in words): eliminated the ability of the bacteria to agglutinate RBCs under static conditions

## S124A: single S124A mutation, effect stated in the FimH-j96 background
[3]
  RBC agglutination under static conditions (in words): eliminated the ability of the bacteria to agglutinate RBCs under static conditions

## galactosylated BSA: negative control galactosylated BSA; galactose is not specifically recognized by FimH
[1]
  Effect of shear on accumulation of E. coli on coated surface (in words): essentially no bacteria bound at any shear
